Measured values published in patent publication US8492567B2, “(Poly)Aminoalkylaminoalkylamide, alkyl-urea, or alkyl-sulfonamide derivatives of epipodophyllotoxin, a process for preparing them, and application thereof in therapy as anticancer agents” (Pierre Fabre Medicament, priority 2008, dated 2013).
Structures can show the parent of a compound that is named as a salt.

How the values were obtained:
[1] = test system: A549 human line (non-small cell lung cancer); assay: Cytotoxicity test: cell growth inhibition of the A549 human line (ATP-lite luminescence); format: cell-based; conditions: A549 cells, 48 hrs incubation with compound, read-out: IC50 (concentration providing a 50% inhibition of cell proliferation)
Protocol: A cytotoxicity test is used. It measures the cell growth inhibition of the A549 human line (non-small cell lung cancer):
The A549 tumor cells are plated in a 96-well plate in RPMI 1640 medium free of phenol red (Seromed) to which is added 5% of fetal calf serum (100 μl/well, 1.25×10^4 cells/ml). After incubation for 24 hrs at 37° C. in an incubator at 5% CO2, the medium is replaced by that containing the compound to be tested, followed by incubation of the plates for another 48 hrs. Cell survival is assessed by measuring the luminescence after salting-out of the ATP from the medium using the cell lysis, luciferase and luciferine solutions included in the ATP-lite-M™ kit following the manufacturer's guidelines (Packard, Rungis, France). Each experimental condition was tested at least three times in sixplicate.

[2] = test system: P388 murine leukemia; assay: Experimental P388 tumor model, survival of mice; format: in vivo; conditions: dose of 0.16 mg/kg
From the text: Experimental P388 tumor model. The model used is P388 murine leukemia (Tumor Models in Cancer Research. Teicher, B. A. ed., Humana Press Inc., Totowa, N.J. Pp. 23-40, 2002), which is maintained by sequential intraperitoneal transplantations in DBA/2 mice (DBA/2JIco mice, Charles River), as previously disclosed (Classic in vivo cancer models: Three examples of mouse models used in experimental therapeutics. Current Protocols in Pharmacology Unit 5.24: 5.24.1-5.24.16, 2001).
The experiment is carried out according to a previously disclosed protocol (Cancer Chemother. Pharmacol. 1998, 41, 437-447). This comprises implanting 10^6 P388 leukemia cells per mouse into C2DF1 hybrid mice (CD2F1/CrlBR, Charles River, St Aubin-les-Elbeuf, France) intravenously at day zero. After the animals have been randomized in treatment and control cages, the compounds to be tested are administered in one single injection by intraperitoneal route the day after the tumor transplantation, at day 1. The animals are then monitored every day, weighed twice per week, and any clinical reaction is recorded. The survival rate is the parameter used to assess antitumor activity. […] The T/Csurvival ratio is calculated for each dosage and the largest value obtained represents the maximum increase in survival rate achieved (maximum activity), which is defined as the optimum T/Csurvival ratio.

SMILES	melting point [°C]	further results
COc1cc(C2c3cc4c(cc3[C@@H](NS(=O)(=O)CCNCCCNCCCCNCCCN)[C@H]3COC(=O)[C@H]23)OCO4)cc(OC)c1O (stereo partly drawn) (as salt: hydrochloride)	191	–
COc1cc(C2c3cc4c(cc3[C@@H](NC(=O)NCCCNCCCCNCCCN)[C@H]3COC(=O)[C@H]23)OCO4)cc(OC)c1O (stereo partly drawn) (as salt: hydrochloride) [Compound 48, 1-{3-[4-(3-Aminopropylamino)-butylamino]-propyl}-3-[9-(4-hydroxy-3,5-dimethoxyphenyl)-8-oxo-5,5a,6,8,8a,9-hexahydrofuro[3′,4′:6,7]-naphtho[2,3-d][1,3]dioxol-5-yl]-urea]	166	–
COc1cc(C2c3cc4c(cc3[C@@H](NC(=O)NCCCNCCCNCCCCNCCCN)[C@H]3COC(=O)[C@H]23)OCO4)cc(OC)c1O (stereo in doubt)	213	–
COc1cc(C2c3cc4c(cc3[C@@H](NC(=O)CCCN)[C@H]3COC(=O)[C@H]23)OCO4)cc(OC)c1O (stereo in doubt) (as salt: hydrochloride)	284	–
COc1cc(C2c3cc4c(cc3[C@@H](NC(=O)CCCN(C)C)[C@H]3COC(=O)[C@H]23)OCO4)cc(OC)c1O (stereo in doubt) (as salt: hydrochloride)	169	–
COc1cc(C2c3cc4c(cc3[C@@H](NC(=O)CCCNCCCNCCCCNCCCN)[C@H]3COC(=O)[C@H]23)OCO4)cc(OC)c1O (stereo partly drawn) [Compound 21, 4-{3-[4-(3-Aminopropylamino)-butylamino]-propylamino}-N-[9-(4-hydroxy-3,5-dimethoxyphenyl)-8-oxo-5,5a,6,8,8a,9-hexahydrofuro[3′,4′:6,7]-naphtho[2,3-d][1,3]dioxol-5-yl]-butyramide]	–	IC50 [1]: 1.7 nM; optimum T/Csurvival value ([2]; single intraperitoneal injection at day 1, 10^6 P388 cells intravenously at day 0, mice): 186%; increase in survival rate of the animals ([2]; single intraperitoneal injection at day 1, P388 leukemia mice): 86%
COc1cc(C2c3cc4c(cc3[C@@H](NC(=O)NCCCNCCCCNCCCN)[C@H]3COC(=O)[C@H]23)OCO4)cc(OC)c1O (stereo partly drawn) [Compound 48, 1-{3-[4-(3-Aminopropylamino)-butylamino]-propyl}-3-[9-(4-hydroxy-3,5-dimethoxyphenyl)-8-oxo-5,5a,6,8,8a,9-hexahydrofuro[3′,4′:6,7]-naphtho[2,3-d][1,3]dioxol-5-yl]-urea]	–	IC50 [1]: 12 nM
